From patent US8207175B2, “Inhibitor compounds” (University Court of the University of Dundee, priority 2005, dated 2012)
Read-outs that look alike come from different tables or passages of the source.

Columns and labels:
AfChiB1 [1] = target: T1, AfChiB1 (Aspergillus fumigatus, UniProt Q873X9); assay: biochemical; format: biochemical
Description: AfChiB1 was expressed, purified and inhibition studies performed as previously described [F. V. Rao, D. R. Houston, R. G. Boot, J. M. F. G. Aerts, M. Hodkinson, D. J. Adams, K. Shiomi, S. Omura, and D. M. F. van Aalten, Specificity and affinity of natural product cyclopentapeptide inhibitors against Aspergillus fumigatus, human and bacterial chitinases, Chemistry & Biology, 12, 65-76 (2005)].
Briefly, AfChiB1 was overexpressed as a GST-fusion protein in E. coli and purified using a combination of affinity and size-exclusion chromatography.
AfChiB1 inhibition was studied using the fluorogenic substrate 4-methylumbelliferyl-β-D-N,N′-diacetylchitobiose (4MU-GlcNAc2; Sigima). Briefly, in a final volume of 50 μl, 2 nM of enzyme was incubated with 20 μM substrate in McIlvain buffer (100 mM citric acid, 200 mM sodium phosphate, pH 5.5) containing 0.1 mg/ml BSA, for 10 min at 37° C. in the presence of different concentration of inhibitors. After the addition of 25 μl of 3 M glycine-NaOH, pH 10.3, the fluorescence of the liberated 4-methylumbelliferone (4MU) was quantified using a Flx 800 microtitrepiate fluorescence reader (Bio-Tek Instruments Inc.), with excitation and emission wavelengths of 360 nm and 460 nm, respectively, using 40 nm slits. Experiments were performed in triplicate. […]
The mode of action was determined by plotting the data as Lineweaver-Burk plots, and by fitting all data to the standard competitive inhibition equation with the GraFit software [R. J. Leatherbarrow, GraFit Version 5, Erithacus Software Ltd., Horley, U.K., (2001)].
The compounds according to an embodiment of the present invention were prepared according to the following methods, and further evaluated as inhibitors against AfChiB using the fluorescence-based assay described herein using 4methylumbelliferyl β-D-N,N-deacetyl-chitobioside as substrate. The assay results are shown in the accompanying tables 3-6.

M.AMCase (mouse AMCase) = M.AMCase (mouse AMCase) (Mus musculus, UniProt Q91XA9); assay: Further inhibition studies, mouse AMCase (Table 2); format: biochemical
Chain of M.AMCase (mouse AMCase) (Q91XA9 22-473): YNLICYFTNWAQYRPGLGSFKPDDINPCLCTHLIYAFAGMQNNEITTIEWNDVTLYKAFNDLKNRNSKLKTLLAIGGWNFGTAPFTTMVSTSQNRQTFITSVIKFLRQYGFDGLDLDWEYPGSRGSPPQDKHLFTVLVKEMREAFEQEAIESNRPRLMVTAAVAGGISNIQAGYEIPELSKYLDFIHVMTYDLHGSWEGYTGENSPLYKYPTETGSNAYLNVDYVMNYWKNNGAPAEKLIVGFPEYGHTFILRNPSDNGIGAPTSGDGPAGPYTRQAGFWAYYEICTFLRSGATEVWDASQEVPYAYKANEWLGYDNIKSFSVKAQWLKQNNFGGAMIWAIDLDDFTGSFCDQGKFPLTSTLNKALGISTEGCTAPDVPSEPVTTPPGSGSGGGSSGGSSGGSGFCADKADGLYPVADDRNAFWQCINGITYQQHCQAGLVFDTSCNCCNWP
Description: (§1) Inhibition Studies on Human and Mouse AMCase and Chitotriosidase

[2] = target: M.Chito (mouse chitotriosidase) (Mus musculus, UniProt Q9D7Q1); assay: Further inhibition studies, mouse chitotriosidase (Table 2); format: biochemical
Chain of M.Chito (mouse chitotriosidase) (Q9D7Q1 22-464): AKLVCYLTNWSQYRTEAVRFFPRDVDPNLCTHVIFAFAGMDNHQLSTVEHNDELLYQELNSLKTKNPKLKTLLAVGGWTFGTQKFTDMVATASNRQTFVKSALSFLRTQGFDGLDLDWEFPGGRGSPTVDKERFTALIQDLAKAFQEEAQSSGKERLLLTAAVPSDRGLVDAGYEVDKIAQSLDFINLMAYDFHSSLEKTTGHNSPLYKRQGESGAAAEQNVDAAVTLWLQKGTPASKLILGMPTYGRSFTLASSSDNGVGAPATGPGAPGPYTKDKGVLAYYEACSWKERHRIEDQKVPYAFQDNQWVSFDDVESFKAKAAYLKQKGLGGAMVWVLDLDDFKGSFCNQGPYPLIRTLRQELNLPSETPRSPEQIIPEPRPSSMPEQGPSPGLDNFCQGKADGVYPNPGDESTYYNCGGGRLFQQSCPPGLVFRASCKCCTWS
Description: as §1

[3] = target: cellulase from Aspergillus niger; assay: Cellulase assay, 4-methylumbelliferyl-β-D-cellobioside; format: biochemical; conditions: 5 nM enzyme, 20 μM substrate, 30 min at 37° C.
Description: (§2) Additionally, for comparison, inhibition studies were performed on celluase from Aspergillus niger, phosphodiesterase 4A and lysozyme.
Commercially available […] from Aspergillus niger (Sigma: C-1184) was assayed, using the fluorogenic substrate 4-methylumbelliferyl-β-D-cellobioside (Sigma M-6018). In a final volume of 50 μl, 5 nM of enzyme was incubated with 20 μM substrate in McIlvain buffer containing 0.1 mg/ml BSA, for 30 min at 37° C. in the presence of different concentration of inhibitors. After the addition of 25 μl of 3 M glycine-NaOH, pH 10.3, the fluorescence of the liberated 4-methylumbelliferone (4MU) was quantified using an Flx 800 microtitreplate fluorescence reader (Bio-Tek Instruments Inc.), with excitation and emission wavelengths of 360 nm and […], respectively, using 40 nm slits. Experiments were performed in triplicate. Production of 4MU was linear with time for the incubation period used, and less than 10% of available substrate was hydrolyzed.

[4] = target: T2, Chicken egg white lysozyme (Gallus gallus, UniProt P00698); assay: Lysozyme assay, EnzCheck Lysozyme kit; format: biochemical; conditions: 500 μM inhibitor
T2 construct: Chicken egg white lysozyme and its substrate; purchased Molecular probes EnzCheck Lysozyme kit; host or cells: chicken egg white
T2 sequence (P00698 19-147): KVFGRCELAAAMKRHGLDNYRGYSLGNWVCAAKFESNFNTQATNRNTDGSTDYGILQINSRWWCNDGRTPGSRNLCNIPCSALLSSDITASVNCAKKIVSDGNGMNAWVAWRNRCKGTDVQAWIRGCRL
Description: as §2
Lysozyme was assayed using the EnzCheck Lysozyme kit from Molecular probes as described by the manufacturer. Chicken egg white lysozyme and its substrate, fluorescein labeled Micrococcus lysodeikyius cell wall (DQ Lysozyme substrate) were used to determine compound inhibition. Briefly, 6.25 units of lysozyme were incubated with 25 μg of DQ substrate with or without various concentrations of inhibitor in a total volume of 100 μl at 37° C. for 30 minutes. The fluorescence was determined using excitation and emission wavelengths of 360 nm and 460 nm, respectively. The potency of inhibitors (IC50) was determined from a dose-response curve. Experiments were performed in triplicate.

H.AMCase (human AMCase) = H.AMCase (human AMCase) (Homo sapiens, UniProt Q9BZP6); assay: Further inhibition studies, human AMCase (Table 2); format: biochemical
Chain of H.AMCase (human AMCase) (Q9BZP6 22-476): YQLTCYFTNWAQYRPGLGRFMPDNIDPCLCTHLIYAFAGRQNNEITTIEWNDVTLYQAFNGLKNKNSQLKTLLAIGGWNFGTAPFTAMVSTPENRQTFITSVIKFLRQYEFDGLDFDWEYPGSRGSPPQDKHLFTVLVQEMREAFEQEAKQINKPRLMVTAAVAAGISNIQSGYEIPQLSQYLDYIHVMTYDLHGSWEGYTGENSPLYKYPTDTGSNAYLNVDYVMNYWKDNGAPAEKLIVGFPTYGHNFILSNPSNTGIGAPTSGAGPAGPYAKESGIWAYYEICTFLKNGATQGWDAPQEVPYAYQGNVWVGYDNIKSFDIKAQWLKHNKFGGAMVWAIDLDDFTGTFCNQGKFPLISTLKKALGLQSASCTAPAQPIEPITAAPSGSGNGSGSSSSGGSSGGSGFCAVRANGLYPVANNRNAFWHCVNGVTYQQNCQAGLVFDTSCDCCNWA
Description: as §1

human chitotriosidase = target: T3, human chitotriosidase (Homo sapiens, UniProt Q13231); assay: Human chitotriosidase inhibition, 4MU-GlcNAc2 chitinase assay; format: biochemical; conditions: 22 μM substrate, 1 nM enzyme, 30° C. for 30 minutes; read-out: hCHT IC50
T3 construct: made in house; host or cells: HEK 293 (transient transfection, supernatant)
T3 sequence (Q13231 22-466): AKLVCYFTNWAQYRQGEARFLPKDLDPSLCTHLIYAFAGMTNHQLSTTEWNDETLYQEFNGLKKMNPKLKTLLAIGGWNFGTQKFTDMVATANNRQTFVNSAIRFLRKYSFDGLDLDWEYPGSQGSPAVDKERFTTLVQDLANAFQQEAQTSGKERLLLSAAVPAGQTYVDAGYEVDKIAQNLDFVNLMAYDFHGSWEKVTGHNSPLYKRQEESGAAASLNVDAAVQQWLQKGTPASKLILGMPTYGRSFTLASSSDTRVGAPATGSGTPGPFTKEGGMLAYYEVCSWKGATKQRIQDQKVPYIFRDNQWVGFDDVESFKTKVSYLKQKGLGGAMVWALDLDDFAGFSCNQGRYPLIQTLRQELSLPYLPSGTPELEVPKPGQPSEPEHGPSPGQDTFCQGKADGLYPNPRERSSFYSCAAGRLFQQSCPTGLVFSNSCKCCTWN
Description: Inhibition studies were also performed on human chitotriosidase and AMCase.
The vector encodes three adjacent FLAG epitopes downstream of the cloning region. Plasmids encoding Flag tagged chitotriosidase and hAMCase were then transiently transfected into HEK 293 cells and supernatants harvested 3 or 6 days after transfection. FLAG-tagged expressing proteins were purified over an anti-FLAG M2 gel affinity column and eluted with a 3XFLAG peptide according to the manufacturers instructions. […] The buffers were same as described above for fungal chitinase assessments except that the assay was carried out at 30° C. for 30 minutes.

human AMCase = target: T4, human AMCase (Homo sapiens, UniProt Q9BZP6); assay: Human AMCase inhibition, 4MU-GlcNAc2 chitinase assay; format: biochemical; conditions: 1 mM inhibitor
T4 construct: made in house; host or cells: HEK 293 (transient transfection, supernatant)
T4 sequence (Q9BZP6 22-476): as the sequence (Q9BZP6 22-476) above
Description: Briefly, the assay consisted of fluorogenic substrate 4-methylumbelliferyl-β-D-N,N′-diacetylchitobiose (4MU-GlcNAc2; Sigma) at a final concentration of 22 μM, along with 1 nM of enzyme in a final volume of 100 μl. The fluorescence was read using excitation and emission wavelengths of 355 nm and 460 nm respectively. The buffers were same as described above for fungal chitinase assessments except that the assay was carried out at 30° C. for 30 minutes.

[5] = target: H.Chito (human chitotriosidase) (Homo sapiens, UniProt Q13231); assay: Further inhibition studies, human chitotriosidase (Table 2); format: biochemical
Chain of H.Chito (human chitotriosidase) (Q13231 22-466): as the sequence (Q13231 22-466) above
Description: as §1

[6] = target: Phosphodiesterase 4A (PDE4A) (Homo sapiens, UniProt P27815); conditions: PDE-SPA assay, result in words
Chain of Phosphodiesterase 4A (PDE4A) (P27815 whole entry): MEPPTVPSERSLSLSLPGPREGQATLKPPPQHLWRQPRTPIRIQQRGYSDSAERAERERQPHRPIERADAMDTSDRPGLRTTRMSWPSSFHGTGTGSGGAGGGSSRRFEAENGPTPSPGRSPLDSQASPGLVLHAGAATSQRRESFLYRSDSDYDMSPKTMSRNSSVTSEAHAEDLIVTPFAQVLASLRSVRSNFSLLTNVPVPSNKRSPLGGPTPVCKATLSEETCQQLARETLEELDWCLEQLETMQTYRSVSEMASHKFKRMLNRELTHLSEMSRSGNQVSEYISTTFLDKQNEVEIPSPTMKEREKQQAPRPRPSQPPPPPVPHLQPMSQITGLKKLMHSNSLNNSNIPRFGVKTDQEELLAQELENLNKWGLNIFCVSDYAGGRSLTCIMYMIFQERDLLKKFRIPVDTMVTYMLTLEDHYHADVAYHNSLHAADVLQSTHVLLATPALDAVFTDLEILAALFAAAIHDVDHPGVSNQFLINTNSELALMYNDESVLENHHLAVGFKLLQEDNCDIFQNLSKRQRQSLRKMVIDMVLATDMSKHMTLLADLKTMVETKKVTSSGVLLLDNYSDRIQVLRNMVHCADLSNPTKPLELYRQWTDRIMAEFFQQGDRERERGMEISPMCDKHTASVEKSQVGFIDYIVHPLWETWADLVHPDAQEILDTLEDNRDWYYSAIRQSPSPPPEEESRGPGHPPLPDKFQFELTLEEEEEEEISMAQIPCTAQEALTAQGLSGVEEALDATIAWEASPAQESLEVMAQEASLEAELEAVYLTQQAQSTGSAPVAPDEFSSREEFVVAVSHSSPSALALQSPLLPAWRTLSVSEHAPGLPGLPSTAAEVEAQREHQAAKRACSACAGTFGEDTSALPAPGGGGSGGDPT
Description: The assay reaction contained 100 nM [^3H]cAMP (1 μCi/ml) in a buffer containing 20 mM HEPES (pH 7.5), 10 mM MgCl2, 100 mM EDTA, 100 mM KCl and 2 μl of test compound in DMSO at 30° C. The reaction was initiated by addition of enzyme for 10 min. The potency of inhibitors (IC50) was determined from a dose-response curve. Experiments were performed with n=6.

AfChiB1 [7] = target: T1, AfChiB1; assay: AfChiB1 binding (Kd)
[8] = Table 6, N7 compounds, against AfChiB, read-out: IC50
[9] = Table 5, N3 compounds, against AfChiB, read-out: IC50
[10] = 2 nM enzyme, 20 μM substrate, pH 5.5, 10 min at 37° C., read-out: AfChiB1 IC50
[11] = mouse AMCase, Bio substrate, pH 4.5, read-out: M.AMCase Bio pH 4.5 (IC50)
[12] = mouse chitotriosidase, Bio substrate, pH 5.2, read-out: M.Chito Bio pH 5.2 (IC50)
[13] = Trio substrate, pH 5.2, read-out: H.Chito Trio pH 5.2 (IC50)
[14] = human AMCase, Bio substrate, pH 4.5, read-out: H.AMCase Bio pH 4.5 (IC50)

**Q.** With `Cn1cnc2c1c(=O)n(CCCn1c(=O)c3c(ncn3CCCC(=O)O)n(C)c1=O)c(=O)n2C` [Compound 21] as the compound, how does the IC50 (AfChiB1 [1]; [8]) read?
**A.** Its IC50 is 0.2 µM.

**Q.** Which IC50 (AfChiB1 [1]; [8]) does the source give for `COC(=O)CCCn1cnc2c1c(=O)n(CCCn1c(=O)c3c(ncn3C)n(C)c1=O)c(=O)n2C` [Compound 20] here?
**A.** Its IC50 is 0.14 µM.

**Q.** Which IC50 (AfChiB1 [1]) does the source give for `Cn1cnc2c1c(=O)n(CCCCn1c(=O)c3c(ncn3C)n(C)c1=O)c(=O)n2C` [Compound 3] here?
**A.** The IC50 was 6 µM.

**Q.** How did the IC50 (AfChiB1 [1]) turn out when `Cn1cnc2c1c(=O)n(CCCn1c(=O)c3c(ncn3C)n(C)c1=O)c(=O)n2C` [Compound 2] was run?
**A.** Its IC50 is 0.23 µM.

**Q.** Which IC50 (AfChiB1 [1]; [9]) does the source give for `CCn1c(=O)n(CCCn2c(=O)c3c(ncn3C)n(C)c2=O)c(=O)c2c1ncn2C` [Compound 10] here?
**A.** The IC50 was 0.31 µM.

**Q.** For `Cn1c(=O)c2[nH]cnc2n(C)c1=O` [theophylline], which IC50 (M.AMCase (mouse AMCase)) is on record?
**A.** The IC50 was ~1600 µM.

**Q.** What about the IC50 [2] of the same compound?
**A.** Its IC50 is > 2000 µM.

**Q.** What about the IC50 [3] of the same compound?
**A.** Its IC50 is 1010 ± 159 µM.

**Q.** What about the IC50 (AfChiB1 [1]; [10]) of the same compound?
**A.** The IC50 was 1500 µM.

**Q.** And the “Egg white lysozyme activity at 500 μM” value [4]?
**A.** The value was 100%.

**Q.** And the IC50 (H.AMCase (human AMCase))?
**A.** Its IC50 is ~2000 µM.

**Q.** Which IC50 (AfChiB1 [1]; [8]) does the source give for `Cn1cnc2c1c(=O)n(CCCn1c(=O)c3nc[nH]c3n(C)c1=O)c(=O)n2C` [Compound 17] here?
**A.** The IC50 was 0.2 µM.

**Q.** How did the IC50 (AfChiB1 [1]; [8]) turn out when `Cn1cnc2c1c(=O)n(CCCn1c(=O)c3c(ncn3CC=CC(=O)O)n(C)c1=O)c(=O)n2C` [Compound 25] was run?
**A.** Its IC50 is 0.42 µM.

**Q.** How did the IC50 (AfChiB1 [1]; [9]) turn out when `Cn1cnc2[nH]c(=O)n(CCCn3c(=O)c4c(ncn4C)n(C)c3=O)c(=O)c21` [Compound 9] was run?
**A.** The IC50 was 0.086 µM.

**Q.** With `Cn1cnc2c1c(=O)n(CCCn1c(=O)c3c(ncn3CCCCC(=O)O)n(C)c1=O)c(=O)n2C` [Compound 23] as the compound, how does the IC50 (AfChiB1 [1]; [8]) read?
**A.** The IC50 was 0.36 µM.

**Q.** Which results are given for `Cn1c(=O)c2c(ncn2C)n(C)c1=O` [caffeine]?
**A.** IC50 (M.AMCase (mouse AMCase); [11]): 800 µM; IC50 [2, 12]: > 1000 µM; IC50 (human chitotriosidase): 257 ± 8 µM; IC50 [3]: 1250 ± 278 µM; hAMCase activity at 1 mM (human AMCase): 36%; Egg white lysozyme activity at 500 μM [4]: 100%; IC50 ([5]; H.Chito Bio pH 5.2 (IC50), Bio substrate): 650 µM; IC50 [5, 13]: 850 µM; IC50 (H.AMCase (human AMCase); [14]): 500 µM

**Q.** How did the IC50 (AfChiB1 [1]; [9]) turn out when `C=CCn1c(=O)n(CCCn2c(=O)c3c(ncn3C)n(C)c2=O)c(=O)c2c1ncn2C` [Compound 11] was run?
**A.** Its IC50 is 0.14 µM.

**Q.** With `Cn1cnc2c1c(=O)n(CCCn1c(=O)c3c(ncn3C)n(CCCO)c1=O)c(=O)n2C` [Compound 16] as the compound, how does the IC50 (AfChiB1 [1]; [9]) read?
**A.** The IC50 was 0.44 µM.

**Q.** Which IC50 (AfChiB1 [1]; [9]) does the source give for `CC(C)n1c(=O)n(CCCn2c(=O)c3c(ncn3C)n(C)c2=O)c(=O)c2c1ncn2C` [Compound 12] here?
**A.** Its IC50 is 0.52 µM.

**Q.** How did the IC50 (AfChiB1 [1]; [8]) turn out when `COC(=O)CCCCn1cnc2c1c(=O)n(CCCn1c(=O)c3c(ncn3C)n(C)c1=O)c(=O)n2C` [Compound 22] was run?
**A.** Its IC50 is 0.3 µM.

**Q.** `Cn1cnc2c1c(=O)n(CCCn1c(=O)c3c(ncn3C)n(CCO)c1=O)c(=O)n2C` [Compound 14] was tested. Which IC50 (AfChiB1 [1]; [9]) did it give?
**A.** The IC50 was 0.18 µM.

**Q.** How did the IC50 (AfChiB1 [1]; [9]) turn out when `Cn1cnc2c1c(=O)n(CCCn1c(=O)c3c(ncn3C)n(CCN)c1=O)c(=O)n2C` [Compound 13] was run?
**A.** The IC50 was 0.078 µM.

**Q.** `Cn1cnc2c1c(=O)n(CCn1c(=O)c3c(ncn3C)n(C)c1=O)c(=O)n2C` [Compound 1] was tested. Which IC50 (AfChiB1 [1]) did it give?
**A.** The IC50 was 6 µM.

**Q.** Which IC50 (AfChiB1 [1]; [8]) does the source give for `COC(=O)C=CCn1cnc2c1c(=O)n(CCCn1c(=O)c3c(ncn3C)n(C)c1=O)c(=O)n2C` [Compound 24] here?
**A.** The IC50 was 0.16 µM.

**Q.** Which IC50 (M.AMCase (mouse AMCase); [11]) does the source give for `CC(=O)CCCCn1c(=O)c2c(ncn2C)n(C)c1=O` [pentoxifylline] here?
**A.** The IC50 was 400 µM.

**Q.** What about the IC50 [2, 12] of the same compound?
**A.** The IC50 was ~1000 µM.

**Q.** And the IC50 (human chitotriosidase)?
**A.** Its IC50 is 98 µM.

**Q.** What about the IC50 [3] of the same compound?
**A.** The IC50 was 881 ± 319 µM.

**Q.** And the “hAMCase activity at 1 mM” value (human AMCase)?
**A.** The value was 49%.

**Q.** And the “inhibition of human phosphodiesterase-4” value [6]?
**A.** The value was “barely detectable”.

**Q.** What about the IC50 (AfChiB1 [1]; [10]) of the same compound?
**A.** The IC50 was 126 µM.

**Q.** What about the Ki (AfChiB1 [1]; competitive inhibitor, 5-30 μM substrate, fit to competitive inhibition equation) of the same compound?
**A.** Its Ki is 37 µM.

**Q.** What about the “Egg white lysozyme activity at 500 μM” value [4] of the same compound?
**A.** Its value is 100%.

**Q.** What about the Kd (AfChiB1 [7]) of the same compound?
**A.** The Kd was 43 ± 10 µM.

**Q.** And the IC50 [5, 13]?
**A.** Its IC50 is 400 µM.

**Q.** And the IC50 (H.AMCase (human AMCase); [14])?
**A.** The IC50 was 400 µM.

**Q.** Which IC50 (AfChiB1 [1]; [9]) does the source give for `Cn1cnc2c1c(=O)n(CCCn1c(=O)c3c(ncn3C)n(CCCN)c1=O)c(=O)n2C` [Compound 15] here?
**A.** Its IC50 is 0.44 µM.

**Q.** How did the IC50 (AfChiB1 [1]; [8]) turn out when `Cn1cnc2c1c(=O)n(CCCn1c(=O)c3c(ncn3CCC(=O)O)n(C)c1=O)c(=O)n2C` [Compound 19] was run?
**A.** Its IC50 is 0.16 µM.
